Each compound was assayed against T1, human GLP-1R (Homo sapiens, UniProt P43220) (assay: GLP-1R cAMP assay (Example B1a, HTRF, 30 min at room temperature)). Settings: cAMP accumulation in HEK293 expressing human GLP-1R, no BETP, 30 min room temperature (Method B1a, compounds ID 1-609), Table 1; read-out: EC50.
T1 construct: host or cells: HEK293
Assay type: cell-based
How it was run: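 Competitive HTRF read-out of cAMP after 30 min room-temperature stimulation, BETP absent, of human GLP-1R-HEK293 cells (1,000/well) in HEPES buffer with 500 μM IBMX and 0.1% BSA. Activation normalised to GLP-1(7-37) positive control. EC50 from 4-parameter non-linear regression.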

T1 sequence (P43220 24-463): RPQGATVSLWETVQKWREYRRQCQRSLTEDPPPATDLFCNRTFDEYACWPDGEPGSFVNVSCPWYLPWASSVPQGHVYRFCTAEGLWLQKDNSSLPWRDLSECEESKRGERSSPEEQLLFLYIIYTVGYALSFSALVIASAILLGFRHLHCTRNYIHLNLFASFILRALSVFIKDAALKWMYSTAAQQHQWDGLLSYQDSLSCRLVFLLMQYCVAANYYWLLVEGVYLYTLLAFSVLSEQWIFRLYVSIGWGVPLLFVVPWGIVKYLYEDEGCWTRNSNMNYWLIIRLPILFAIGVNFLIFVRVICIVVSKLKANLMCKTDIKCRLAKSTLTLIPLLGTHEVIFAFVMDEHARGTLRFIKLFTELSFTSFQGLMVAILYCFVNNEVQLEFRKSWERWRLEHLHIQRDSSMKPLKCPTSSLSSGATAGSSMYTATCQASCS

| SMILES | EC50 [nM] |
| --- | --- |
| Cc1cc(-n2nc3c(c2-n2ccn(-c4ccc5c(cnn5C)c4F)c2=O)[C@@H]2CCC[C@H](C3)N2S(=O)(=O)c2cc3cc([C@@H]4CCOC5(CC5)C4)ccc3n2[C@@]2(c3noc(=O)[nH]3)C[C@@H]2C)cc(C)c1F [Compound 604, 3-[(1S,2S)-1-[2-[[(1S,8R)-4-(4-fluoro-3,5-dimethyl-phenyl)-3-[3-(4-fluoro-1-methyl-indazol-5-yl)-2-oxo-imidazol-1-yl]-4,5,12-triazatricyclo[6.3.1.02,6]dodeca-2,5-dien-12-yl]sulfonyl]-5-[(7R)-4-oxaspiro[2.5]octan-7-yl]indol-1-yl]-2-methyl-cyclopropyl]-4H-1,2,4-oxadiazol-5-one] | 839 |
| Cc1cc(-n2nc3c(c2-n2ccn(-c4ccc(C(=O)N(C)C5CC5)c(Cl)c4)c2=O)[C@@H]2CCC[C@H](C3)N2C(=O)c2cc3cc([C@H]4CCOC(C)(C)C4)ccc3n2[C@@]2(c3noc(=O)[nH]3)C[C@@H]2C)cc(C)c1F [Compound 543, 2-chloro-N-cyclopropyl-4-[3-[(1S,8R)-12-[5-[(4S)-2,2-dimethyltetrahydropyran-4-yl]-1-[(1S,2S)-2-methyl-1-(5-oxo-4H-1,2,4-oxadiazol-3-yl)cyclopropyl]indole-2-carbonyl]-4-(4-fluoro-3,5-dimethyl-phenyl)-4,5,12-triazatricyclo[6.3.1.02,6]dodeca-2,5-dien-3-yl]-2-oxo-imidazol-1-yl]-N-methyl-benzamide] | ≥ 10000 |
| Cc1cc(-n2nc3c(c2-n2ccn(-c4ccc5c(cnn5C)c4F)c2=O)CCN(C(=O)c2cc4cc([C@H]5CCOC(C)(C)C5)ccc4n2[C@@]2(c4noc(=O)[nH]4)C[C@@H]2C)CC3)cc(C)c1F [Compound 421, 3-[(1S,2S)-1-[5-[(4S)-2,2-dimethyltetrahydropyran-4-yl]-2-[2-(4-fluoro-3,5-dimethyl-phenyl)-3-[3-(4-fluoro-1-methyl-indazol-5-yl)-2-oxo-imidazol-1-yl]-4,5,7,8-tetrahydropyrazolo[3,4-d]azepine-6-carbonyl]indol-1-yl]-2-methyl-cyclopropyl]-4H-1,2,4-oxadiazol-5-one] | ≥ 10000 |
| Cc1cc(-n2nc3c(c2-n2ccn(-c4ccc5c(cnn5C)c4F)c2=O)[C@H]2CC[C@@H](C3)N2C(=O)c2cc3cc([C@H]4CCOC5(CC5)C4)ccc3n2[C@@]2(c3noc(=O)[nH]3)C[C@H]2C)cc(C)c1F [Compound 539, 3-((1S,2R)-1-(2-((4R,7S)-3-(3-(4-fluoro-1-methyl-1H-indazol-5-yl)-2-oxo-2,3-dihydro-1H-imidazol-1-yl)-2-(4-fluoro-3,5-dimethylphenyl)-2,4,5,6,7,8-hexahydro-4,7-epiminocyclohepta [c]pyrazole-9-carbonyl)-5-((S)-4-oxaspiro[2.5]octan-7-yl)-1H-indol-1-yl)-2-methylcyclopropyl)-1,2,4-oxadiazol-5 (4H)-one] | ≥ 10000 |
| Cc1cc(-n2nc3c(c2-n2ccn(-c4ccc5c(cnn5C)c4F)c2=O)[C@@H]2CC[C@H](C3)N2C(=O)c2cc3cc([C@@H]4COC(C)(C)C4)ccc3n2[C@@]2(c3noc(=O)[nH]3)C[C@@H]2C)cc(C)c1F [Compound 425, 3-[(1S,2S)-1-[5-[(3R)-5,5-dimethyltetrahydrofuran-3-yl]-2-[(1S,8R)-4-(4-fluoro-3,5-dimethyl-phenyl)-3-[3-(4-fluoro-1-methyl-indazol-5-yl)-2-oxo-imidazol-1-yl]-4,5,11-triazatricyclo[6.2.1.02,6]undeca-2,5-diene-11-carbonyl]indol-1-yl]-2-methyl-cyclopropyl]-4H-1,2,4-oxadiazol-5-one] | 292 |
| Cc1cc(-n2nc3c(c2-n2ccn(-c4ccc5c(cnn5C)c4F)c2=O)[C@@H]2CC[C@H](C3)N2C(=O)c2cc3cc([C@H]4CCOC(C)(C)C4)ccc3n2[C@@]2(CNC(=O)CO)C[C@@H]2C)cc(C)c1F [Compound 241, N-[[(1S,2S)-1-[5-[(4S)-2,2-dimethyltetrahydropyran-4-yl]-2-[(1S,8R)-4-(4-fluoro-3,5-dimethyl-phenyl)-3-[3-(4-fluoro-1-methyl-indazol-5-yl)-2-oxo-imidazol-1-yl]-4,5,11-triazatricyclo[6.2.1.02,6]undeca-2,5-diene-11-carbonyl]indol-1-yl]-2-methyl-cyclopropyl]methyl]-2-hydroxy-acetamide] | 641 |
| Cc1cc(-n2nc3c(c2-n2ccn(-c4ccc5c(cnn5C)c4F)c2=O)[C@H]2CC[C@@H](C3)N2C(=O)c2cc3cc([C@H]4CCOC(C)(C)C4)ccc3n2[C@@]2(c3noc(=O)[nH]3)C[C@@H]2C)cc(C)c1F [Compound 35, 3-((1S,2S)-1-(5-((S)-2,2-dimethyltetrahydro-2H-pyran-4-yl)-2-((4R,7S)-3-(3-(4-fluoro-1-methyl-1H-indazol-5-yl)-2-oxo-2,3-dihydro-1H-imidazol-1-yl)-2-(4-fluoro-3,5-dimethylphenyl)-2,4,5,6,7,8-hexahydro-4,7-epiminocyclohepta [c]pyrazole-9-carbonyl)-1H-indol-1-yl)-2-methylcyclopropyl)-1,2,4-oxadiazol-5 (4H)-one] | ≥ 100000 |
| Cc1cc(-n2nc3c(c2-n2ccn(-c4ccc5cnncc5c4F)c2=O)CN(C(=O)c2cc4cc([C@H]5CCOC(C)(C)C5)ccc4n2[C@@]2(c4noc(=O)[nH]4)C[C@@H]2C)CCC3)cc(C)c1F [Compound 521, 3-[(1S,2S)-1-[5-[(4S)-2,2-dimethyltetrahydropyran-4-yl]-2-[2-(4-fluoro-3,5-dimethyl-phenyl)-3-[3-(5-fluorophthalazin-6-yl)-2-oxo-imidazol-1-yl]-4,6,7,8-tetrahydropyrazolo[4,3-c]azepine-5-carbonyl]indol-1-yl]-2-methyl-cyclopropyl]-4H-1,2,4-oxadiazol-5-one] | 197 |
| Cc1cc(-n2nc3c(c2-c2nc(-c4ccc5c(cnn5C)c4F)c(C)[nH]2)[C@H](C)N(C(=O)c2cc4cc([C@H]5CCOC(C)(C)C5)ccc4n2[C@@]2(c4noc(=O)[nH]4)C[C@@H]2C)CC3)cc(C)c1F [Compound 24, 3-((1S,2S)-1-(5-((S)-2,2-dimethyltetrahydro-2H-pyran-4-yl)-2-((S)-3-(4-(4-fluoro-1-methyl-1H-indazol-5-yl)-5-methyl-1H-imidazol-2-yl)-2-(4-fluoro-3,5-dimethylphenyl)-4-methyl-4,5,6,7-tetrahydro-2H-pyrazolo[4,3-c]pyridine-5-carbonyl)-1H-indol-1-yl)-2-methylcyclopropyl)-1,2,4-oxadiazol-5 (4H)-one] | > 10000 |
| Cc1cc(-n2nc3c(c2-n2ccn(-c4ccc5c(cnn5C)c4F)c2=O)[C@@H]2CC[C@H](C3)N2C(=O)c2cc3cc([C@H]4CCOC(C)(C)C4)ncc3n2[C@@]2(c3noc(=O)[nH]3)C[C@@H]2C)cc(C)c1F [Compound 211, 3-((1S,2S)-1-(5-((S)-2,2-dimethyltetrahydro-2H-pyran-4-yl)-2-((4S,7R)-3-(3-(4-fluoro-1-methyl-1H-indazol-5-yl)-2-oxo-2,3-dihydro-1H-imidazol-1-yl)-2-(4-fluoro-3,5-dimethylphenyl)-2,4,5,6,7,8-hexahydro-4,7-epiminocyclohepta [c]pyrazole-9-carbonyl)-1H-pyrrolo[2,3-c]pyridin-1-yl)-2-methylcyclopropyl)-1,2,4-oxadiazol-5 (4H)-one] | 51 |
| Cc1cc(-n2nc3c(c2-n2ccn(-c4ccc5c(cnn5C)c4F)c2=O)[C@@H]2CC[C@H](C3)N2C(=O)c2cc3c(=O)n([C@@H]4CCOC(C)(C)C4)ccc3n2[C@@]2(c3noc(=O)[nH]3)C[C@@H]2C)cc(C)c1F [Compound 239, 3-[(1S,2S)-1-[5-[(4R)-2,2-dimethyltetrahydropyran-4-yl]-2-[(1S,8R)-4-(4-fluoro-3,5-dimethyl-phenyl)-3-[3-(4-fluoro-1-methyl-indazol-5-yl)-2-oxo-imidazol-1-yl]-4,5,11-triazatricyclo[6.2.1.02,6]undeca-2,5-diene-11-carbonyl]-4-oxo-pyrrolo[3,2-c]pyridin-1-yl]-2-methyl-cyclopropyl]-4H-1,2,4-oxadiazol-5-one] | > 10000 |
| Cc1cc(-n2nc3c(c2-n2ccn(-c4ccc5c(cnn5C)c4F)c2=O)[C@@H]2CC[C@H](C3)N2C(=O)c2cc3cc(C4CCOCC4)ccc3n2[C@@]2(c3noc(=O)[nH]3)C[C@@H]2C)cc(C)c1F [Compound 208, 3-((1S,2S)-1-(2-((4S,7R)-3-(3-(4-fluoro-1-methyl-1H-indazol-5-yl)-2-oxo-2,3-dihydro-1H-imidazol-1-yl)-2-(4-fluoro-3,5-dimethylphenyl)-2,4,5,6,7,8-hexahydro-4,7-epiminocyclohepta [c]pyrazole-9-carbonyl)-5-(tetrahydro-2H-pyran-4-yl)-1H-indol-1-yl)-2-methylcyclopropyl)-1,2,4-oxadiazol-5 (4H)-one] | 182 |
| Cc1cc(-n2nc3c(c2-n2ccn(-c4ccc5c(cnn5C)c4F)c2=O)[C@@H]2CC[C@H](C3)N2C(=O)c2cc3sc(C4CCOC(C)(C)C4)nc3cc2C2(c3noc(=O)[nH]3)CC2)cc(C)c1F (stereo partly drawn) [Compound 133, 3-[1-[2-(2,2-dimethyltetrahydropyran-4-yl)-6-[(1S,8R)-4-(4-fluoro-3,5-dimethyl-phenyl)-3-[3-(4-fluoro-1-methyl-indazol-5-yl)-2-oxo-imidazol-1-yl]-4,5,11-triazatricyclo[6.2.1.02,6]undeca-2,5-diene-11-carbonyl]-1,3-benzothiazol-5-yl]cyclopropyl]-4H-1,2,4-oxadiazol-5-one] | > 10000 |
| CNC(=O)Cc1ccc(-n2ccn(-c3c4c(nn3-c3cc(C)c(F)c(C)c3)C[C@H]3CCC[C@@H]4N3C(=O)c3cc4cc([C@H]5CCOC(C)(C)C5)ccc4n3[C@@]3(c4noc(=O)[nH]4)C[C@@H]3C)c2=O)cc1 [Compound 544, 2-[4-[3-[(1S,8R)-12-[5-[(4S)-2,2-dimethyltetrahydropyran-4-yl]-1-[(1S,2S)-2-methyl-1-(5-oxo-4H-1,2,4-oxadiazol-3-yl)cyclopropyl]indole-2-carbonyl]-4-(4-luoro-3,5-dimethyl-phenyl)-f4,5,12-triazatricyclo[6.3.1.02,6]dodeca-2,5-dien-3-yl]-2-oxo-imidazol-1-yl]phenyl]-N-methyl-acetamide] | ≥ 10000 |

Same assay, conditions: text to Table 1d, bridge atoms configured out of the plane or toward the reader

| SMILES | potency |
| --- | --- |
| Cc1cc(-n2nc3c(c2-n2ccn(-c4ccc5c(cnn5C)c4F)c2=O)[C@H]2CC[C@@H](C3)N2C(=O)c2cc3cc([C@H]4CCOC(C)(C)C4)ccc3n2[C@@]2(c3noc(=O)[nH]3)C[C@@H]2C)cc(C)c1F [Compound 35, 3-((1S,2S)-1-(5-((S)-2,2-dimethyltetrahydro-2H-pyran-4-yl)-2-((4R,7S)-3-(3-(4-fluoro-1-methyl-1H-indazol-5-yl)-2-oxo-2,3-dihydro-1H-imidazol-1-yl)-2-(4-fluoro-3,5-dimethylphenyl)-2,4,5,6,7,8-hexahydro-4,7-epiminocyclohepta [c]pyrazole-9-carbonyl)-1H-indol-1-yl)-2-methylcyclopropyl)-1,2,4-oxadiazol-5 (4H)-one] | little or no potency |

From patent US12617783B2, “Heterocyclic GLP-1R agonists” (BIOMEA FUSION, INC., priority 2024, dated 2026)
